This is an account of results in article PMC3752001 (European journal of pharmacology, 2012).

Where “and” joins values, the source holds several entries; their conditions need not be identical. Equal values may be shown once. Where a name gives a salt, the structure may show the parent alone. Read-outs that look alike come from different tables or passages of the source.

Test [1] concerns the target high sensitivity (HS) α4β2 nicotinic acetylcholine receptors (Homo sapiens, UniProt P17787+P43681). As to the kind of experiment: Two-electrode voltage clamp, high sensitivity. In kind it is cell-based. For orientation: In two-electrode clamp one electrode senses voltage and the other passes current.
Test [2] addresses LS β2D218A α4β2 receptors (Homo sapiens, UniProt P17787+P43681, D218A). As to the kind of experiment: Two-electrode voltage clamp, LS β2D218A mutant preparation in Xenopus oocytes. The conditions noted are these: for nH ± S.E.M.: ACh concentration/response, LSβ2D218A. In kind it is cell-based.
Test [3] concerns the target low sensitivity (LS) α4β2 nicotinic acetylcholine receptors (Homo sapiens, UniProt P17787+P43681). As to the kind of experiment: Two-electrode voltage clamp, low sensitivity. The conditions noted are these: for Imax (%) potentiation: dFBr co-applied with 100 μM acetylcholine (EC75). In kind it is cell-based.
Test [4] concerns the target α7 nicotinic acetylcholine receptors (Homo sapiens, UniProt P36544). The test can be described thus: Two-electrode voltage clamp, α7 receptors in Xenopus oocytes. In kind it is cell-based.
Test [5] concerns the target HS β2D218A α4β2 receptors (Homo sapiens, UniProt P17787+P43681, D218A). As to the kind of experiment: Two-electrode voltage clamp, HS β2D218A mutant preparation in Xenopus oocytes. In kind it is cell-based. The note with it: for nH ± S.E.M.: ACh concentration/response, HSβ2D218A.
Test [6] relates to human and rat 5-hydroxytryptamine transporters (SERT). The conditions noted are these: HEPES concentrations greater than 1 mM; ref Li et al., 2002; cited from earlier work.

Chain of LS β2D218A α4β2 receptors (P43681 27-627): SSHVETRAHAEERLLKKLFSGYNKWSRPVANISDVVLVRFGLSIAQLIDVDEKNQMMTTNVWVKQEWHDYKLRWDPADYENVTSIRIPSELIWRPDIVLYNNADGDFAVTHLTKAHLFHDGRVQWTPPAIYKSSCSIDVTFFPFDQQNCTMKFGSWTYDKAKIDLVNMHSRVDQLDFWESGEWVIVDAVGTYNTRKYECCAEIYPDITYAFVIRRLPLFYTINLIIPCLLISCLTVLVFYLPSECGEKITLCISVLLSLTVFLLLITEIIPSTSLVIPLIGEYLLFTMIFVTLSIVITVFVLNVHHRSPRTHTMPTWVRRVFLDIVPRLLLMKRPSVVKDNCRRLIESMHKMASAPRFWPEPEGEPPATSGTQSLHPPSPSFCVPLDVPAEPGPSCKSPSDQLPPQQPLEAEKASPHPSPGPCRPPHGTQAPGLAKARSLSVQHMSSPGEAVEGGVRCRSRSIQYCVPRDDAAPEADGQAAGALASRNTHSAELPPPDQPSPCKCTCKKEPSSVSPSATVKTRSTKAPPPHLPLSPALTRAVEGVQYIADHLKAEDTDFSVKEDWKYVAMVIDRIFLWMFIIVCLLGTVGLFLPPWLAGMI
Chain of LS β2D218A α4β2 receptors (P17787 26-502 D218A): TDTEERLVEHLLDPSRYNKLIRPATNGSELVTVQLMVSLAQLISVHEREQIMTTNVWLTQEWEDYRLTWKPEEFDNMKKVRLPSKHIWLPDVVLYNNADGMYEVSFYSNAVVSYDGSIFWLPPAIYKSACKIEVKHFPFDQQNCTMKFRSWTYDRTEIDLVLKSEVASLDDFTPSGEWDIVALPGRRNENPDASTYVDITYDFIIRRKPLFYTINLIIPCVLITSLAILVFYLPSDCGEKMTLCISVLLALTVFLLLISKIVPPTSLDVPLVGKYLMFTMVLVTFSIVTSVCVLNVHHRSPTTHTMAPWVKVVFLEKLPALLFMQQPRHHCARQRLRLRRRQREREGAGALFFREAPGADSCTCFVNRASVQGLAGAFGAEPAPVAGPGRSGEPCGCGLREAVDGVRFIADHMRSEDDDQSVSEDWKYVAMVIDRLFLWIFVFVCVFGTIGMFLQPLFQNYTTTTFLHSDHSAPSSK
Chain of HS β2D218A α4β2 receptors (P43681 27-627): as the sequence (P43681 27-627) above
Chain of HS β2D218A α4β2 receptors (P17787 26-502 D218A): as the sequence (P17787 26-502 D218A) above
Chain of high sensitivity (HS) α4β2 nicotinic acetylcholine receptors (P43681 27-627): as the sequence (P43681 27-627) above
Chain of high sensitivity (HS) α4β2 nicotinic acetylcholine receptors (P17787 26-502): as the sequence (P17787 26-502 D218A) above, with A193D counted along it
Chain of low sensitivity (LS) α4β2 nicotinic acetylcholine receptors (P43681 27-627): as the sequence (P43681 27-627) above
Chain of low sensitivity (LS) α4β2 nicotinic acetylcholine receptors (P17787 26-502): as the sequence (P17787 26-502 D218A) above, with A193D counted along it
Chain of α7 nicotinic acetylcholine receptors (P36544 23-502): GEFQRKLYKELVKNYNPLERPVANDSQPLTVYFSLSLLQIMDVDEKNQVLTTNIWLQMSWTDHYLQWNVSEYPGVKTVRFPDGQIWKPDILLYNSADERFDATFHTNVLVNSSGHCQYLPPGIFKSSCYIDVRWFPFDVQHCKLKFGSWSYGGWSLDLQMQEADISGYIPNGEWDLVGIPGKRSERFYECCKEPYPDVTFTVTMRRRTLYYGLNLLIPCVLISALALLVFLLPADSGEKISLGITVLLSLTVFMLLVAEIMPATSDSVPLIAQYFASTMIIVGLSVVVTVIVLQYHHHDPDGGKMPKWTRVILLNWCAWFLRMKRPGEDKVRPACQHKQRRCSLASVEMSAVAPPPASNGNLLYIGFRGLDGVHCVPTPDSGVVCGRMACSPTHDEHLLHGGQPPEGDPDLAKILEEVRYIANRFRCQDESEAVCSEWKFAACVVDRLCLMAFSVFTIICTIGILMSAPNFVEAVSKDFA

A word on the Hill slope: it is the slope factor of the fitted curve. With `CC(=O)OCC[N+](C)(C)C` [ACh, acetylcholine chloride], the “change of acetylcholine pEC50” value in test [1] is on record as “not significantly changed”. Besides, the “nH ± S.E.M.” value in test [1] is 0.9 ± 0.2 and 1.0 ± 0.2; in test [2] (HEPES ND-96 buffer) it was 1.0 ± 0.1; in test [2] (phosphate ND-96 buffer), 0.8 ± 0.2; in test [3] it was 1.2 ± 0.1 and 1.2 ± 0.2; in test [5] (HEPES ND-96 buffer) it was 1.1 ± 0.3; in test [5] (phosphate ND-96 buffer) it was 0.9 ± 0.3. Also, the Hill slope in test [4] (acetylcholine, α7, phosphate ND-96 buffer) was 0.79 ± 0.13.

A word on the IC50: it is the midpoint of a concentration-inhibition curve. A higher IC50 goes with lower potency. `O=S(=O)(O)CCN1CCN(CCO)CC1` [HEPES, 4-(2-hydroxyethyl)-1-piperazineethanesulfonic acid] returned an IC50 in test [1] of 430 µM. Also, in test [1] (100 μM HEPES, HS, phosphate ND-96), the “potentiation of the acetylcholine-induced Imax currents” value turned out to be 194%. Further, the “current induced by HEPES alone” value in test [1] (HEPES applied alone to α4β2 expressing oocytes (data not shown)) is “no induced current”. Besides, the “maximum potentiation of acetylcholine induced responses” value in test [1] (HEPES co-applied with 10 μM acetylcholine, HS, 2 mM phosphate ND-96, pH 7.4) is listed as 190%. In test [6], the “decrease of SERT currents” value was 10–50%. For the same compound, the “potentiation by HEPES” value in test [2] (HEPES co-applied with 100 μM acetylcholine, LS β2D218A, phosphate ND-96) is “remained insensitive”; in test [5] (HEPES co-applied with 10 μM acetylcholine, HS β2D218A, phosphate ND-96) it was “not potentiated”. In addition, in test [3] (HEPES co-applied with 100 μM acetylcholine, LS, phosphate ND-96), the “effect of HEPES on acetylcholine response” value is “only a slight inhibition of the response with no observable potentiation”. Further, the “effect of HEPES on responses to acetylcholine” value in test [4] (HEPES ≤ 10 mM co-applied with 1 mM acetylcholine, α7) is recorded as “little observable effect”.

In general, EC50 refers to the midpoint of the concentration-response curve. Regarding `C=CC(C)(C)c1[nH]c2cc(Br)ccc2c1CCNC` [dFBr, Desformylflustrabromine · HCl], the EC50 in test [1] is 3.2 µM; in test [1] (EC50 (potentiation)), 2.5 µM; in test [3] it was 1.3 µM. For the same compound, the IC50 in test [1] is 79 µM; in test [1] (IC50 (inhibition phase)), 50 µM; in test [3], 6.3 µM. Moreover, the “Imax (%) potentiation” value in test [1] was 370% and 360%; in test [3] (LS, HEPES ND-96 buffer) it was 260%; in test [3] (LS, phosphate ND-96 buffer), 370%. Further, in test [1], the “potentiation by dFBr” value is about 360%.

Turning to “Tris (hydroxymethyl)-aminomethane hydrochloride”, in test [1] (10 mM Tris co-applied with 10 μM acetylcholine, HS, phosphate ND-96), the “inhibition of acetylcholine response” value is 50%. Besides, the “inhibition of the dFBr potentiated acetylcholine induced response” value in test [1] (10 mM Tris, with 1 μM dFBr and acetylcholine, HS, phosphate ND-96) was “about 50%”. The “current induced by Tris alone” value in test [1] (Tris in phosphate buffer in the absence of acetylcholine) is “did not induce currents”. For the same compound, the “effect of Tris on acetylcholine response” value in test [3] (Tris ≤ 10 mM co-applied with 100 μM acetylcholine, LS, phosphate ND-96) was “only slightly inhibited”. The “effect of Tris on the dFBr potentiated response” value in test [3] (Tris ≤ 10 mM, with 1 μM dFBr and acetylcholine, LS, phosphate ND-96) was “only slightly inhibited”.
